Laboratory results reported in PubChem BioAssay (NCI).
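Values below derive from 48-hour exposures of cells grown in 96-well plates, with endpoints linearly interpolated between the two concentrations bracketing the appropriate inhibition level. TGI is the concentration that stops growth completely.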 Where a SMILES comes first, the peptide text is derived from it. Bridges are numbered along the chain shown (N, C = ends). [ ]: non-standard residue; d: D form. The star is where a group is joined. ξ: configuration not given here. PhAc = O=C(Cc1ccccc1)*; ξP = O=C(O)C1CCCN1

Tests used:
Test in all cases: growth of human tumour cells (NCI), 48 h
A498 renal = test system: A498 renal
EKVX NSCLC = test system: EKVX NSCLC
SK-MEL-28 melanoma = test system: SK-MEL-28 melanoma
OVCAR-4 ovarian = test system: OVCAR-4 ovarian
KM12 colon = test system: KM12 colon
TK-10 renal = test system: TK-10 renal
PC-3 prostate = test system: PC-3 prostate
DU-145 prostate = test system: DU-145 prostate
UACC-62 melanoma = test system: UACC-62 melanoma
HCT-116 colon = test system: HCT-116 colon
MDA-N = test system: MDA-N
HOP-62 NSCLC = test system: HOP-62 NSCLC
MOLT-4 leukemia = test system: MOLT-4 leukemia
OVCAR-3 ovarian = test system: OVCAR-3 ovarian
M14 melanoma = test system: M14 melanoma
K-562 leukemia = test system: K-562 leukemia
T-47D breast = test system: T-47D breast
HCC-2998 colon = test system: HCC-2998 colon
SK-MEL-5 melanoma = test system: SK-MEL-5 melanoma
NCI-H522 lung = test system: NCI-H522 lung
SR leukemia = test system: SR leukemia
U251 CNS = test system: U251 CNS
HS 578T breast = test system: HS 578T breast
OVCAR-5 ovarian = test system: OVCAR-5 ovarian
SF-268 CNS = test system: SF-268 CNS
MDA-MB-231 breast = test system: MDA-MB-231 breast
UO-31 renal = test system: UO-31 renal
CCRF-CEM leukemia = test system: CCRF-CEM leukemia
SW-620 colon = test system: SW-620 colon
SK-MEL-2 melanoma = test system: SK-MEL-2 melanoma
ACHN renal = test system: ACHN renal
NCI/ADR-RES ovarian = test system: NCI/ADR-RES ovarian
NCI-H226 lung = test system: NCI-H226 lung
IGROV1 ovarian = test system: IGROV1 ovarian
SF-295 CNS = test system: SF-295 CNS
RPMI-8226 leukemia = test system: RPMI-8226 leukemia
HOP-92 NSCLC = test system: HOP-92 NSCLC
HCT-15 colon = test system: HCT-15 colon
UACC-257 melanoma = test system: UACC-257 melanoma
MALME-3M melanoma = test system: MALME-3M melanoma
CAKI-1 renal = test system: CAKI-1 renal
LOX IMVI melanoma = test system: LOX IMVI melanoma
RXF 393 renal = test system: RXF 393 renal
MCF7 breast = test system: MCF7 breast
SK-OV-3 ovarian = test system: SK-OV-3 ovarian
OVCAR-8 ovarian = test system: OVCAR-8 ovarian
NCI-H460 lung = test system: NCI-H460 lung
786-0 renal = test system: 786-0 renal
HL-60(TB) leukemia = test system: HL-60(TB) leukemia
SNB-19 CNS = test system: SNB-19 CNS
HT29 colon = test system: HT29 colon
SF-539 CNS = test system: SF-539 CNS
NCI-H23 lung = test system: NCI-H23 lung
MDA-MB-435 = test system: MDA-MB-435
SN12C renal = test system: SN12C renal
A549 NSCLC = test system: A549 NSCLC
SNB-75 CNS = test system: SNB-75 CNS
COLO 205 colon = test system: COLO 205 colon

Q: For `Cc1ccc2c(=O)cc(-c3ccc(Cl)cc3)[nH]c2n1`, which TGI (A498 renal) is on record?
A: > 100 µM

Q: What about the TGI (EKVX NSCLC) of the same compound?
A: > 100 µM

Q: What about the TGI (SK-MEL-28 melanoma) of the same compound?
A: > 100 µM

Q: And the TGI (OVCAR-4 ovarian)?
A: > 100 µM

Q: And the TGI (KM12 colon)?
A: > 100 µM

Q: And the TGI (TK-10 renal)?
A: > 100 µM

Q: And the TGI (PC-3 prostate)?
A: > 20.8 µM

Q: What about the TGI (DU-145 prostate) of the same compound?
A: > 55.4 µM

Q: And the TGI (UACC-62 melanoma)?
A: > 100 µM

Q: And the TGI (HCT-116 colon)?
A: > 32.1 µM

Q: What about the TGI (MDA-N) of the same compound?
A: 5.56 µM

Q: What about the TGI (HOP-62 NSCLC) of the same compound?
A: > 100 µM

Q: And the TGI (MOLT-4 leukemia)?
A: > 43.3 µM

Q: And the TGI (OVCAR-3 ovarian)?
A: > 30.2 µM

Q: What about the TGI (M14 melanoma) of the same compound?
A: > 100 µM

Q: And the TGI (K-562 leukemia)?
A: 29.1 µM

Q: What about the TGI (T-47D breast) of the same compound?
A: 26.3 µM

Q: And the TGI (HCC-2998 colon)?
A: > 63 µM

Q: What about the TGI (SK-MEL-5 melanoma) of the same compound?
A: 14.6 µM

Q: And the TGI (NCI-H522 lung)?
A: > 100 µM

Q: And the TGI (SR leukemia)?
A: > 100 µM

Q: And the TGI (U251 CNS)?
A: > 59.9 µM

Q: What about the TGI (HS 578T breast) of the same compound?
A: > 100 µM

Q: What about the TGI (OVCAR-5 ovarian) of the same compound?
A: > 100 µM

Q: And the TGI (SF-268 CNS)?
A: > 100 µM

Q: What about the TGI (MDA-MB-231 breast) of the same compound?
A: 19.7 µM

Q: What about the TGI (UO-31 renal) of the same compound?
A: > 66.8 µM

Q: What about the TGI (CCRF-CEM leukemia) of the same compound?
A: > 100 µM

Q: What about the TGI (SW-620 colon) of the same compound?
A: > 100 µM

Q: What about the TGI (SK-MEL-2 melanoma) of the same compound?
A: > 100 µM

Q: What about the TGI (ACHN renal) of the same compound?
A: > 100 µM

Q: What about the TGI (NCI/ADR-RES ovarian) of the same compound?
A: > 28.3 µM

Q: And the TGI (NCI-H226 lung)?
A: 82 µM

Q: What about the TGI (IGROV1 ovarian) of the same compound?
A: > 100 µM

Q: And the TGI (SF-295 CNS)?
A: 53.8 µM

Q: And the TGI (RPMI-8226 leukemia)?
A: > 49.1 µM

Q: And the TGI (HOP-92 NSCLC)?
A: > 100 µM

Q: And the TGI (HCT-15 colon)?
A: > 41.3 µM

Q: And the TGI (UACC-257 melanoma)?
A: > 67.7 µM

Q: And the TGI (MALME-3M melanoma)?
A: > 31.3 µM

Q: What about the TGI (CAKI-1 renal) of the same compound?
A: > 65.9 µM

Q: What about the TGI (LOX IMVI melanoma) of the same compound?
A: > 100 µM

Q: And the TGI (RXF 393 renal)?
A: > 100 µM

Q: And the TGI (MCF7 breast)?
A: > 100 µM

Q: And the TGI (SK-OV-3 ovarian)?
A: > 100 µM

Q: What about the TGI (OVCAR-8 ovarian) of the same compound?
A: > 100 µM

Q: What about the TGI (NCI-H460 lung) of the same compound?
A: > 100 µM

Q: What about the TGI (786-0 renal) of the same compound?
A: > 100 µM

Q: And the TGI (HL-60(TB) leukemia)?
A: 8.8 µM

Q: What about the TGI (SNB-19 CNS) of the same compound?
A: > 100 µM

Q: What about the TGI (HT29 colon) of the same compound?
A: > 29.4 µM

Q: What about the TGI (SF-539 CNS) of the same compound?
A: 36.8 µM

Q: And the TGI (NCI-H23 lung)?
A: > 100 µM

Q: What about the TGI (MDA-MB-435) of the same compound?
A: 5.5 µM

Q: What about the TGI (SN12C renal) of the same compound?
A: > 94.8 µM

Q: What about the TGI (A549 NSCLC) of the same compound?
A: > 100 µM

Q: And the TGI (SNB-75 CNS)?
A: > 27.9 µM

Q: Which results are given for `O=C(Cc1ccccc1)N[C@@H]1COC(=O)C2CCCN2C(=O)[C@@H]2CCCN2C1=O` (stereo not given in full) (PhAc-[dS]-Pro-[ξP]; ester 1-C)?
A: TGI (A498 renal): > 100 µM; TGI (EKVX NSCLC): > 100 µM; TGI (SK-MEL-28 melanoma): > 100 µM; TGI (OVCAR-4 ovarian): > 100 µM; TGI (KM12 colon): > 100 µM; TGI (TK-10 renal): > 100 µM; TGI (PC-3 prostate): > 100 µM; TGI (DU-145 prostate): > 100 µM; TGI (UACC-62 melanoma): > 100 µM; TGI (HCT-116 colon): > 100 µM; TGI (MDA-N): > 100 µM; TGI (HOP-62 NSCLC): > 100 µM; TGI (MOLT-4 leukemia): > 100 µM; TGI (OVCAR-3 ovarian): > 100 µM; TGI (M14 melanoma): > 100 µM; TGI (T-47D breast): > 100 µM; TGI (HCC-2998 colon): > 100 µM; TGI (SK-MEL-5 melanoma): > 100 µM; TGI (SR leukemia): > 100 µM; TGI (HS 578T breast): > 100 µM; TGI (OVCAR-5 ovarian): > 100 µM; TGI (SF-268 CNS): > 100 µM; TGI (MDA-MB-231 breast): > 100 µM; TGI (CCRF-CEM leukemia): > 100 µM; TGI (SW-620 colon): > 100 µM; TGI (SK-MEL-2 melanoma): > 100 µM; TGI (ACHN renal): > 100 µM; TGI (NCI/ADR-RES ovarian): > 100 µM; TGI (COLO 205 colon): > 100 µM; TGI (NCI-H226 lung): > 100 µM; TGI (IGROV1 ovarian): > 100 µM; TGI (SF-295 CNS): > 100 µM; TGI (HOP-92 NSCLC): > 100 µM; TGI (HCT-15 colon): > 100 µM; TGI (UACC-257 melanoma): > 100 µM; TGI (MALME-3M melanoma): > 100 µM; TGI (CAKI-1 renal): > 100 µM; TGI (LOX IMVI melanoma): > 100 µM; TGI (RXF 393 renal): > 100 µM; TGI (MCF7 breast): > 100 µM; TGI (SK-OV-3 ovarian): > 100 µM; TGI (OVCAR-8 ovarian): > 100 µM; TGI (NCI-H460 lung): > 100 µM; TGI (786-0 renal): > 100 µM; TGI (HL-60(TB) leukemia): > 100 µM; TGI (SNB-19 CNS): > 100 µM; TGI (HT29 colon): > 100 µM; TGI (SF-539 CNS): > 100 µM; TGI (NCI-H23 lung): > 100 µM; TGI (MDA-MB-435): > 100 µM; TGI (SN12C renal): > 100 µM; TGI (A549 NSCLC): > 100 µM; TGI (SNB-75 CNS): 4.79 µM
